These results are taken from patent US20180228730A1, “USE OF WATER-SOLUBLE POLYMERS BASED ON N-VINYLPYRROLIDONE AND ACRYLIC ACID AS PHARMACEUTICAL ADJUVANTS” (BASF SE, priority 2015, published 2018).

Read-outs that look alike come from different tables or passages of the source.

For series [1] the following is noted: demineralized water, 100 mg haloperidol per 250 ml, hard gelatine capsules.
Protocol: The release of the active ingredient from the spray-dried polymeric salt was carried out in demineralized water. The initial weight was calculated on 100 mg of haloperidol per 250 ml of release medium. The polymeric salt or the crystalline substance correspondingly weighed out were filled into hard gelatine capsules.
Series [2] in a line: Release of loperamide from extrudates in demineralized water (release device, UV/VIS). Type of series: physicochemical. The note with it: 250 ml demineralized water, 37° C.; spectroscopic detection. On the procedure: The active ingredient release from samples 14, 15, 16 and 17 were tested in a release device with automatic spectroscopic measurement (00501FEXXX-D). The extrudates having 5% content of active ingredient were added directly to the release medium at the beginning of the experiment. […] The mixtures were filled into hard gelatine capsules and released therefrom.
Procedure for release (2 hours):
Conditions 0-2 hours: Medium: • 250 ml of demineralized water; • paddle stirrer 50 rpm; • temperature 37° C. • content determination UV/VIS with 1 cm path length cuvette • active ingredient amount 250 mg
The results of the releases are compiled in the following tables and diagrams. The release is complete in all cases.

With `O=C(CCCN1CCC(O)(c2ccc(Cl)cc2)CC1)c1ccc(F)cc1` [Crystalline haloperidol, haloperidol], the Release of haloperidol is 0.0% in series [1] (0 min); 0.1% in series [1] (2 min); 0.2% in series [1] (4 min); 0.3% in series [1] (6 min); 0.4% in series [1] (8 min); 0.6% in series [1] (10 min). Moreover, the Release of haloperidol is given as 1.5% in series [1] (30 min), 1.8% in series [1] (60 min) and 2.3% in series [1] (120 min).

In the case of `CN(C)C(=O)C(CCN1CCC(O)(c2ccc(Cl)cc2)CC1)(c1ccccc1)c1ccccc1` [crystalline loperamide (base), loperamide], the “Dissolution in the release medium” value in series [2] is on record as “no dissolution at all”.
